Experimental data published in the kinase profiling compilation of Christmann-Franck et al. (2016).
Values joined by “and” are separate entries in the source; they are usually repeats but may differ in a detail not shown here. Equal values may be shown once.

Experiments:
Assay in all cases: KINOMEscan competition binding
Conditions in all cases: compound 10.0 µM
ADCK4 (human) = ADCK4 (human) (UniProt Q96D53)
AKT2 (human) = AKT2 (human) (UniProt P31751)
BRSK1 (human) = BRSK1 (human) (UniProt Q8TDC3)
BRSK1 (human), sequence (Q8TDC3 whole entry, looked up): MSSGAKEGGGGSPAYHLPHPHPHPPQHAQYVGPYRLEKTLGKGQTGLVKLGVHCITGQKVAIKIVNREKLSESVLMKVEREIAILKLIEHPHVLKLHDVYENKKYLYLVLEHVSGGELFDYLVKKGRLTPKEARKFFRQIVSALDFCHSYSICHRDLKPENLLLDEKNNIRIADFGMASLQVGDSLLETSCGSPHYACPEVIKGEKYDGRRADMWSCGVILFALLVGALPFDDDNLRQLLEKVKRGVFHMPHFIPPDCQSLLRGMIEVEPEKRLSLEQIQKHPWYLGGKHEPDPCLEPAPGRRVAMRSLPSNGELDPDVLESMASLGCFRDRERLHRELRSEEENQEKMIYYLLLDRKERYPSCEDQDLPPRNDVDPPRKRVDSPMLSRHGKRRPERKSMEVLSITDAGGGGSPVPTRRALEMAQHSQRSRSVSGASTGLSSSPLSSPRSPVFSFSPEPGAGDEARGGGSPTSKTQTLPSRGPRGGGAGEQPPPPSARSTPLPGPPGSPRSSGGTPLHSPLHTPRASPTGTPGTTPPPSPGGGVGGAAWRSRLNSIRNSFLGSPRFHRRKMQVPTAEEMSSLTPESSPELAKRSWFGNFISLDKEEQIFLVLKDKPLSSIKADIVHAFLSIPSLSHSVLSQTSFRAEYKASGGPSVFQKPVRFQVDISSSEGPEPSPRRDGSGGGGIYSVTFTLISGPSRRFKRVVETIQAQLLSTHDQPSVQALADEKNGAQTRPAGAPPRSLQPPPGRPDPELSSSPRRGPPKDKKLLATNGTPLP

CAMK2B (human) = CAMK2B (human) (UniProt Q13554)
CAMK2B (human), sequence (Q13554 whole entry, looked up): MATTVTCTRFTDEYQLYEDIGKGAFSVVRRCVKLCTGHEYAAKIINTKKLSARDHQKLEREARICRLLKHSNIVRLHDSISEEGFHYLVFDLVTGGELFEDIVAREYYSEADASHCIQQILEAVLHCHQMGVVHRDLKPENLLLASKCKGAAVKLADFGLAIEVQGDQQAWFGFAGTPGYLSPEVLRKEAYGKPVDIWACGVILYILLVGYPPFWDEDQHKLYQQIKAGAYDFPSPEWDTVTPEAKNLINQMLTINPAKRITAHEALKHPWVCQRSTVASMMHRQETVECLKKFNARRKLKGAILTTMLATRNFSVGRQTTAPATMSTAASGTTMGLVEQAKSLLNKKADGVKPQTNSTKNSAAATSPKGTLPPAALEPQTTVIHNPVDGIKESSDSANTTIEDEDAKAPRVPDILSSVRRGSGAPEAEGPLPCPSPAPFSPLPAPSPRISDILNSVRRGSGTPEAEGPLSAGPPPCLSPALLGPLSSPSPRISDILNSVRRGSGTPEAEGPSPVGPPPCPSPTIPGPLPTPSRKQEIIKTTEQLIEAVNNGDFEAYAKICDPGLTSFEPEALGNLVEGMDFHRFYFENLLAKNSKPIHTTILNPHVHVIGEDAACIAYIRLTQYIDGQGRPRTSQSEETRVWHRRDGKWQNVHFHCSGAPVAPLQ

CDK9 (human) = CDK9 (human) (UniProt P50750)
CDKL2 (human) = CDKL2 (human) (UniProt Q92772)
CDKL2 (human), sequence (Q92772 whole entry, looked up): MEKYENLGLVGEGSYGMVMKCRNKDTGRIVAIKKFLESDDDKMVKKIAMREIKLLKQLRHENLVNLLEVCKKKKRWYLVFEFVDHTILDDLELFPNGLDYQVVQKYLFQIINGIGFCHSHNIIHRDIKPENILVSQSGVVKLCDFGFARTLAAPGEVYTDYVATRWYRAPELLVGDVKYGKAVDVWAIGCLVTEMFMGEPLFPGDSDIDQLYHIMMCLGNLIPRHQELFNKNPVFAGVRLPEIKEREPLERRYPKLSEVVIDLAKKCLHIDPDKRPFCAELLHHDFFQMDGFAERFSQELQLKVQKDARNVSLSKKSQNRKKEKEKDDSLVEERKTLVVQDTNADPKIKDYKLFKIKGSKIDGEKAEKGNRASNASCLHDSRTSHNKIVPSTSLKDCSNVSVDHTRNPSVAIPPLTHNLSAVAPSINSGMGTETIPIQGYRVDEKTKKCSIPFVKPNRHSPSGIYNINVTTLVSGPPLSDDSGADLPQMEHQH

CSF1R (human) = CSF1R (human) (UniProt P07333)
CSNK1E (human) = CSNK1E (human) (UniProt P49674)
CSNK1G2 (human) = CSNK1G2 (human) (UniProt P78368)
CSNK1G2 (human), sequence (P78368 whole entry, looked up): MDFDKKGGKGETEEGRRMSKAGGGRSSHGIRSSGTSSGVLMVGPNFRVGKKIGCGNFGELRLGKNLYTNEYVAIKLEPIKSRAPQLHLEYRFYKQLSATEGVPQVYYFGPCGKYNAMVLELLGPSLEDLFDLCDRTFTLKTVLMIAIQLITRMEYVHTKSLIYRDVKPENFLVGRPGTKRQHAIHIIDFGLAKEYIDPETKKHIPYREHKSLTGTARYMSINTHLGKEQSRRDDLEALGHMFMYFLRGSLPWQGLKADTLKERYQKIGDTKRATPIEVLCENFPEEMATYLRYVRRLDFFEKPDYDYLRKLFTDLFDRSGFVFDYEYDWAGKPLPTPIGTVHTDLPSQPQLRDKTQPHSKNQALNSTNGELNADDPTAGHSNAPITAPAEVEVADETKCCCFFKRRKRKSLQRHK

DYRK2 (human) = DYRK2 (human) (UniProt Q92630)
EPHA6 (human) = EPHA6 (human) (UniProt Q9UF33)
EPHA6 (human), sequence (Q9UF33 whole entry, looked up): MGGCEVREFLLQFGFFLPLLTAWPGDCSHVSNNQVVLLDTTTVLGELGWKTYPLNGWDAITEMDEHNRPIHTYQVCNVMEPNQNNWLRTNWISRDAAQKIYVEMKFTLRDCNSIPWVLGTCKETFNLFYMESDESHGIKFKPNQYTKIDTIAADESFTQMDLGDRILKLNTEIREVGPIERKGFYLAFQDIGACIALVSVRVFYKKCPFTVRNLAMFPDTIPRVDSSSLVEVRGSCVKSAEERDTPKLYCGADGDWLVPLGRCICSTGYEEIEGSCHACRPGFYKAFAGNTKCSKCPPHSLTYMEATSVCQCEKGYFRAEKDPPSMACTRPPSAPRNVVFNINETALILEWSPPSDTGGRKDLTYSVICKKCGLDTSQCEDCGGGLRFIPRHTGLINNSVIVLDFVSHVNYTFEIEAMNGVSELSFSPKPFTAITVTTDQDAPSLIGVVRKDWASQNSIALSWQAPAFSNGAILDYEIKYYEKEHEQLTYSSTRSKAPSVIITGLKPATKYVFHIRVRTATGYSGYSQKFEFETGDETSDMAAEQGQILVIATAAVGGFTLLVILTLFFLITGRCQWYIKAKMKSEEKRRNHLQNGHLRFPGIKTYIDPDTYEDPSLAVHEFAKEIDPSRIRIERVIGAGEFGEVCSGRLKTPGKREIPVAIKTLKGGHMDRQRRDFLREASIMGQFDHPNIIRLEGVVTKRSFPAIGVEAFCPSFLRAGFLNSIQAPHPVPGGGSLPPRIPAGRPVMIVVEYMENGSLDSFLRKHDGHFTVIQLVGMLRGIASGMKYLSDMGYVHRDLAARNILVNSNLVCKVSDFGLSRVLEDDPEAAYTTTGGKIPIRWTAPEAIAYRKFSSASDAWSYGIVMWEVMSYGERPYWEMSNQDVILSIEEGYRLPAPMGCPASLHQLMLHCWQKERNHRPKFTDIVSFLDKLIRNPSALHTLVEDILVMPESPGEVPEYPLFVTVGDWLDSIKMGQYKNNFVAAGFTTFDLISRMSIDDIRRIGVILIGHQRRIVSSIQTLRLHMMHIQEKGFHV

EPHB4 (human) = EPHB4 (human) (UniProt P54760)
ERBB2 (human) = ERBB2 (human) (UniProt P04626)
FER (human) = FER (human) (UniProt P16591)
KDR (human) = KDR (human) (UniProt P35968)
LATS2 (human) = LATS2 (human) (UniProt Q9NRM7)
MAP4K4 (human) = MAP4K4 (human) (UniProt O95819)
MINK1 (human) = MINK1 (human) (UniProt Q8N4C8)
NEK9 (human) = NEK9 (human) (UniProt Q8TD19)
NIM1 (human) = NIM1 (human) (UniProt Q8IY84)
NIM1 (human), sequence (Q8IY84 whole entry, looked up): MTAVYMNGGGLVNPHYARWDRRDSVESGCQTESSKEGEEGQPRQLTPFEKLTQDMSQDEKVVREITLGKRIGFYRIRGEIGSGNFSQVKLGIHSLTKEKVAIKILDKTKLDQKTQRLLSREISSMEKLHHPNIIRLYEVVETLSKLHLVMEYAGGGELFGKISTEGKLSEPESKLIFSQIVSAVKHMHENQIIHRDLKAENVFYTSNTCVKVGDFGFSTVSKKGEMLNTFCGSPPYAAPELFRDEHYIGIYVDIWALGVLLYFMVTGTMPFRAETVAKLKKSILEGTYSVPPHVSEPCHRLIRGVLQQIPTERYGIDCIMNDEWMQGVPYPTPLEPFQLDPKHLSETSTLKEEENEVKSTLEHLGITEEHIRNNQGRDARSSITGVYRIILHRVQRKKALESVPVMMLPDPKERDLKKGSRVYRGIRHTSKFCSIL

OXSR1 (human) = OXSR1 (human) (UniProt O95747)
PIK3C2G (human) = PIK3C2G (human) (UniProt O75747)
PIK3CG (human) = PIK3CG (human) (UniProt P48736)
PIM3 (human) = PIM3 (human) (UniProt Q86V86)
PIP4K2C (human) = PIP4K2C (human) (UniProt Q8TBX8)
PIP4K2C (human), sequence (Q8TBX8 whole entry, looked up): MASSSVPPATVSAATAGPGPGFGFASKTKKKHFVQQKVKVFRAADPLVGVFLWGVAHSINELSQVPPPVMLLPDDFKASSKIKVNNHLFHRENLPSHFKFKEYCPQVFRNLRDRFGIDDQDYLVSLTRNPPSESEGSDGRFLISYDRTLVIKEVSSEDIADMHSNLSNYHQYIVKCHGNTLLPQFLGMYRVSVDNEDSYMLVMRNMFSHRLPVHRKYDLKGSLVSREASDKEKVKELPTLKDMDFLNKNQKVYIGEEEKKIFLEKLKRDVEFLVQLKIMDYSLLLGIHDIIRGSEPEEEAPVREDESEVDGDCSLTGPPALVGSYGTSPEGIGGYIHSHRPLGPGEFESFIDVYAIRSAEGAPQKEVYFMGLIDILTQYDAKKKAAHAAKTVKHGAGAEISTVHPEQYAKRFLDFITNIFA

PKN2 (human) = PKN2 (human) (UniProt Q16513)
PRPF4B (human) = PRPF4B (human) (UniProt Q13523)
RIOK2 (human) = RIOK2 (human) (UniProt Q9BVS4)
RPS6KA1 KD1 (human) = RPS6KA1 KD1 (human) (UniProt Q15418)
RPS6KA5 KD2 (human) = RPS6KA5 KD2 (human) (UniProt O75582)
SIK2 (human) = SIK2 (human) (UniProt Q9H0K1)
SLK (human) = SLK (human) (UniProt Q9H2G2)
SNRK (human) = SNRK (human) (UniProt Q9NRH2)
SRPK1 (human) = SRPK1 (human) (UniProt Q96SB4)
STK25 (human) = STK25 (human) (UniProt O00506)
STK32A (human) = STK32A (human) (UniProt Q8WU08)
STK32C (human) = STK32C (human) (UniProt Q86UX6)
TIE1 (human) = TIE1 (human) (UniProt P35590)
TNK1 (human) = TNK1 (human) (UniProt Q13470)
ZAP70 (human) = ZAP70 (human) (UniProt P43403)
ZAP70 (human), sequence (P43403 whole entry, looked up): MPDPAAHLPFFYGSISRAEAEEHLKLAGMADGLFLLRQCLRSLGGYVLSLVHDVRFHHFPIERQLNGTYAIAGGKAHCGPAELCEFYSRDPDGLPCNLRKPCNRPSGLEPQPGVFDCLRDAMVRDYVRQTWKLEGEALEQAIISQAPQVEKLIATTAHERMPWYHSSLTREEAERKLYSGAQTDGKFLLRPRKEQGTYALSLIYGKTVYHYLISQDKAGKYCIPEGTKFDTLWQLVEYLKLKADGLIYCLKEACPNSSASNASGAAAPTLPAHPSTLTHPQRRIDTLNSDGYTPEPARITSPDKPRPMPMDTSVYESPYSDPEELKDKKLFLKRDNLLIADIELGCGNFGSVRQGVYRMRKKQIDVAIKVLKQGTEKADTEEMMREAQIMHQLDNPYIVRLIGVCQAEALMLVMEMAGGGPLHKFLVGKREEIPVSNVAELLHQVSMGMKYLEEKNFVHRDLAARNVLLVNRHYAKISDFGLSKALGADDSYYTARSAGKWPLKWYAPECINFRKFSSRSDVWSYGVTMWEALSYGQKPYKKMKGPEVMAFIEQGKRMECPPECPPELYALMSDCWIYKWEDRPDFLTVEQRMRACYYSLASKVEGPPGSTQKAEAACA

| Structure (SMILES) | kinase still bound, per cent of control (ADCK4 (human)) [%] | kinase still bound, per cent of control (AKT2 (human)) [%] | kinase still bound, per cent of control (BRSK1 (human)) [%] | kinase still bound, per cent of control (CAMK2B (human)) [%] | kinase still bound, per cent of control (CDK9 (human)) [%] | kinase still bound, per cent of control (CDKL2 (human)) [%] | kinase still bound, per cent of control (CSF1R (human)) | kinase still bound, per cent of control (CSNK1E (human)) [%] | kinase still bound, per cent of control (CSNK1G2 (human)) [%] | kinase still bound, per cent of control (DYRK2 (human)) [%] | kinase still bound, per cent of control (EPHA6 (human)) [%] | kinase still bound, per cent of control (EPHB4 (human)) [%] | kinase still bound, per cent of control (ERBB2 (human)) [%] | kinase still bound, per cent of control (FER (human)) [%] | kinase still bound, per cent of control (KDR (human)) [%] | kinase still bound, per cent of control (LATS2 (human)) [%] | kinase still bound, per cent of control (MAP4K4 (human)) | kinase still bound, per cent of control (MINK1 (human)) [%] | kinase still bound, per cent of control (NEK9 (human)) [%] | kinase still bound, per cent of control (NIM1 (human)) [%] | further results |
| --- | --- | --- | --- | --- | --- | --- | --- | --- | --- | --- | --- | --- | --- | --- | --- | --- | --- | --- | --- | --- | --- |
| C=CC(=O)Nc1ccc(C(=O)c2sc(Nc3ccc(N4CCN(C)CC4)cc3OC)nc2N)cc1 | 45 | 100 | 98 | 0 | 85 | 86 | 58% | 66 | 25 | 4.2 | 88 | 100 | 77 | 82 | 100 | 100 | 38% | 3.5 | 100 | 91 | kinase still bound, per cent of control (OXSR1 (human)): 10%; kinase still bound, per cent of control (PIK3C2G (human)): 100%; kinase still bound, per cent of control (PIK3CG (human)): 96%; kinase still bound, per cent of control (PIM3 (human)): 87%; kinase still bound, per cent of control (PIP4K2C (human)): 20%; kinase still bound, per cent of control (PKN2 (human)): 100%; kinase still bound, per cent of control (PRPF4B (human)): 100%; kinase still bound, per cent of control (RIOK2 (human)): 53%; kinase still bound, per cent of control (RPS6KA1 KD1 (human)): 24%; kinase still bound, per cent of control (RPS6KA5 KD2 (human)): 7%; kinase still bound, per cent of control (SIK2 (human)): 72%; kinase still bound, per cent of control (SLK (human)): 32%; kinase still bound, per cent of control (SNRK (human)): 0.2%; kinase still bound, per cent of control (SRPK1 (human)): 71%; kinase still bound, per cent of control (STK25 (human)): 100%; kinase still bound, per cent of control (STK32A (human)): 52%; kinase still bound, per cent of control (STK32C (human)): 84%; kinase still bound, per cent of control (TIE1 (human)): 67%; kinase still bound, per cent of control (TNK1 (human)): 22%; kinase still bound, per cent of control (ZAP70 (human)): 20% |
| N#Cc1cc(-c2ccnc(Nc3ccc(-n4cnc(-c5cccnc5)n4)cc3)n2)cc(N2CCOCC2)c1 | 0.25 | 100 | 85 | 37 | 2.1 | 2 | 14% | 95 | 72 | 39 | 72 | 70 | 100 | 99 | 75 | 62 | 24% | 31 | 63 | 58 | kinase still bound, per cent of control (OXSR1 (human)): 96%; kinase still bound, per cent of control (PIK3C2G (human)): 100%; kinase still bound, per cent of control (PIK3CG (human)): 0.75%; kinase still bound, per cent of control (PIM3 (human)): 78%; kinase still bound, per cent of control (PIP4K2C (human)): 2.8%; kinase still bound, per cent of control (PKN2 (human)): 44%; kinase still bound, per cent of control (PRPF4B (human)): 57%; kinase still bound, per cent of control (RIOK2 (human)): 1.4%; kinase still bound, per cent of control (RPS6KA1 KD1 (human)): 31%; kinase still bound, per cent of control (RPS6KA5 KD2 (human)): 100%; kinase still bound, per cent of control (SIK2 (human)): 33%; kinase still bound, per cent of control (SLK (human)): 10%; kinase still bound, per cent of control (SNRK (human)): 90%; kinase still bound, per cent of control (SRPK1 (human)): 30%; kinase still bound, per cent of control (STK25 (human)): 64%; kinase still bound, per cent of control (STK32A (human)): 100%; kinase still bound, per cent of control (STK32C (human)): 89%; kinase still bound, per cent of control (TIE1 (human)): 30%; kinase still bound, per cent of control (TNK1 (human)): 25%; kinase still bound, per cent of control (ZAP70 (human)): 70% |
| O=c1[nH]c2ccccc2n1C1CCN(Cc2ccc(-c3nc4cc5[nH]cnc5cc4nc3-c3ccccc3)cc2)CC1 | 100 | 100 | 100 | 86 | 100 | 77 | 99% and 76% | 15 | 59 | 88 | 98 | 100 | 86 | 83 | 86 | 82 | 80% and 100% | 88 | 88 | 71 | kinase still bound, per cent of control (OXSR1 (human)): 81%; kinase still bound, per cent of control (PIK3C2G (human)): 75%; kinase still bound, per cent of control (PIK3CG (human)): 25%; kinase still bound, per cent of control (PIM3 (human)): 100%; kinase still bound, per cent of control (PIP4K2C (human)): 83%; kinase still bound, per cent of control (PKN2 (human)): 92%; kinase still bound, per cent of control (PRPF4B (human)): 81%; kinase still bound, per cent of control (RIOK2 (human)): 79%; kinase still bound, per cent of control (RPS6KA1 KD1 (human)): 91%; kinase still bound, per cent of control (RPS6KA5 KD2 (human)): 99%; kinase still bound, per cent of control (SIK2 (human)): 85%; kinase still bound, per cent of control (SLK (human)): 59%; kinase still bound, per cent of control (SNRK (human)): 91%; kinase still bound, per cent of control (SRPK1 (human)): 99%; kinase still bound, per cent of control (STK25 (human)): 97%; kinase still bound, per cent of control (STK32A (human)): 66%; kinase still bound, per cent of control (STK32C (human)): 87%; kinase still bound, per cent of control (TIE1 (human)): 100%; kinase still bound, per cent of control (TNK1 (human)): 91%; kinase still bound, per cent of control (ZAP70 (human)): 99% |
